The values that follow come from paper doi:10.1101/2024.01.05.573888v1 (biorxiv, 2024).

As usually defined, the pKd is −log10 of the Kd, conventionally taken in molar units.

Assay in all cases: ITC
What all share (type): binding

Assay [1] concerns the target T1, PaKPR2 (Pseudomonas aeruginosa, UniProt A0A0H2Z9K5).
T1 sequence (A0A0H2Z9K5 1-315): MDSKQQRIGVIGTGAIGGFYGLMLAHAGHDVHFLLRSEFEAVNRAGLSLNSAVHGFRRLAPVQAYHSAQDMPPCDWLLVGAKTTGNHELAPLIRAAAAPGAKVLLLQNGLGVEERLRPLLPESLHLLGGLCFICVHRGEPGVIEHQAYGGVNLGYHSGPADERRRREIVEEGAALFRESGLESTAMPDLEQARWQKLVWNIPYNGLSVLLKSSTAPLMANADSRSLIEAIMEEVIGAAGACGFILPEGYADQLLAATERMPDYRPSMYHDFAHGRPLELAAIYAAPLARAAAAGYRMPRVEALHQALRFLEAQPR

In assay [2] the target is T1, PaKPR2. This is another data set of the same source.
The target in assay [3] is T1, PaKPR2. This is another data set of the same source.

pKd: −log10 of the molar value. Like-named read-outs stand apart in the source and are kept apart here.

In the case of `O=C(O)C(=O)c1ccco1` [2-Furyl glyoxylate], in assay [1], the pKd was 6.41.

`CC[C@H](C)C(=O)C(=O)O` [3methyl 2 ketopentanoate] showed a pKd in assay [2] of 4.95.

Take `NC(=O)C1=CN([C@@H]2O[C@H](COP(=O)(O)OP(=O)(O)OC[C@H]3O[C@@H](n4cnc5c(N)ncnc54)[C@H](O)[C@@H]3O)[C@@H](O)[C@H]2O)C=CC1` [NADH]: the negative logarithm of the Kd (pKd) in assay [1] is 4.01.

For the compound `O=C(O)C(=O)c1cccs1`, in assay [1], the negative logarithm of the Kd (pKd) is 5.87.

In assay [3], `CC(C)CC(=O)C(=O)O` [2-ketoisocaproate] showed a pKd of 5.52.

With `NC(=O)C1=CN([C@@H]2O[C@H](COP(=O)(O)OP(=O)(O)OC[C@H]3O[C@@H](n4cnc5c(N)ncnc54)[C@H](OP(=O)(O)O)[C@@H]3O)[C@@H](O)[C@H]2O)C=CC1` [NADPH], the negative logarithm of the Kd (pKd) in assay [2] is 5.11.

In turn, `O=C(O)C(=O)CCc1ccccc1` [2-oxo-4-phenylbutanoic acid] gave a pKd in assay [1] of 5.04.

In assay [1], `O=C(O)C(=O)c1ccccc1` [Phenyl glyoxylate] had a pKd of 5.45. Compared with the last compound, the pKd is 0.41 log units higher.
